Data on 5 molecules can be found in US8404869B2, “Phenanthrenequinone-based compound and pharmaceutical composition containing the same for the treatment or prevention of disease involving metabolic syndrome” (Mazence Inc., priority 2007, dated 2013).

The subject of assay [1] is C57BL/6JL Lep ob/Lep ob mice. Description: Blood biomarkers (lipid, glucose, enzyme levels) in ob/ob mice. It is filed as in vivo. Set-up: unit not given here. The note with it: after mixed-feed of 0.4% for 18 days. Here is the method:
(§1) 10-week-old C57BL/6JL Lep ob/Lep ob male mice having obesity characteristics and predisposition were purchased from Daehan Biolink Co., Ltd. (Chungchongbuk-do, Korea). Animals were raised in a breeding room maintained at a temperature of 23° C., 55% humidity, illumination of 300 to 500 lux, a 12-h light/dark (L/D) cycle, and ventilation of 10 to 18 times/hr. Animals were fed ad libitum pellets of Purina Rodent Laboratory Chow 5001 (purchased from Purina Mills Inc., St. Louis, Mo., USA) as a solid feed for experimental animals and tap water as drinking water. Mice were allowed to acclimate to new environment of the breeding room for two weeks and were then administered some pyrano-3,4-phenanthrenequinone or furano-3,4-naphthoquinone derivatives synthesized according to the present invention at mixed-feed of 0.4% for 18 days. Observation was made on changes in body weight, blood glucose and dietary intake, with respect to a time course of administration. After administration was complete, confirm changes in glucose, lipid and enzyme levels in blood.
(§2) For comparison, the same experiments were carried out for the subject (negative control group) to which the active ingredient was not administered, and subject (positive control group) to which Cryptotanshinone, extracted from Danshen by a method as set forth in Example 1 of the Korean Patent Application No. 2004-0116339 by the present applicant, was administered by the above-mentioned condition.

The next assay concerns AMPK. Briefly: Determination of AMPK activation in differentiated C2C12 myoblast cells (SAMS peptide, [γ-32P]ATP). Format: cell-based. The conditions noted are these: C2C12 myoblast cells treated at 5 μg/ml; DMSO (0.5%) control = 1. As for the experimental part:
Myoblast cells, C2C12, were cultured in DMEM containing 10% bovine calf serum. When a cell density reached a range of about 85% to 90%, the culture medium was replaced with a medium containing 1% bovine calf serum to induce differentiation of cells. The thus-differentiated myoblast cells were treated with samples synthesized in Examples 1 through 16 at a concentration of 5 μg/ml, and compared with a control group. Enzymatic activity of AMPK was determined as follows. Firstly, C2C12 cells were lysed to obtain protein extracts and then ammonium sulfate was added to a final concentration of 30%, thereby precipitating proteins. Protein precipitates were dissolved in a buffer (62.5 mM Hepes, pH 7.2, 62.5 mM NaCl, 62.5 mM NaF, 1.25 mM Na pyrophosphate, 1.25 mM EDTA, 1 mM DTT, 0.1 mM PMSF, and 200 μM AMP). Thereafter, 200 μM SAMS peptide (HMRSAMSGLHLVKRR: the underlined serine residue is a phosphorylation site, as an AMPK phosphorylation site of acetyl-CoA carboxylase) and [γ-32P]ATP were added thereto and reactants were reacted for 10 minutes at 30° C. This was followed by spotting of the resulting reaction solution on p81 phosphocellulose paper. The p81 paper was washed with a 3% phosphoric acid solution and radioactivity thereof was measured. For each reaction condition, reactions involving no SAMS peptide were also conducted and basic values were subtracted from the thus-observed values.

For assay [2], the system named is C57BL/6JL Lep ob/Lep ob mice. Briefly: Weight loss effects in obese mice (ob/ob). Format: in vivo. The note with it: mixed-feed of 0.4% for 18 days; for change in vivo at 0.4 % in feed: Mus musculus, po, 432 h, read-out: Increase in BW; for Final BW: ob/ob male mice. As for the experimental part:
as §1, §2
Herein, ‘Increase in BW’ is calculated as the following; Increase in BW=(Final BW−Initial BW)/Initial BW×100

The mark [3] stands for this setting: (Final BW−Initial BW)/Initial BW×100.

In assay [1], `Cc1cc2c(c3ccccc13)C(=O)C(=O)C1=C2OC(C)(C)CC1` [Example 16, 3,3,6-Trimethyl-2,3-dihydro-1H-4-oxa-chrysene-11,12-dione] had a GOT of 342.5, a GPT of 197.5, an HDL chol of 47.0 and an LDL chol of 12.00. In assay [1], this molecule displayed a T. chol of 140.0, a glucose of 135 and a triglyceride of 82.3. Besides, in the assay on AMPK, the AMPK fold is recorded as 1.9 fold. Further, the change in vivo at 0.4 % in feed in assay [2] (setting [3]) is -7.2%. Also, in assay [2], the “Final BW” value amounted to 48.0 ± 1.9 g.
In assay [1], `Cc1cc2c(c3ccccc13)C(=O)C(=O)C1=C2OC(C)C1` (centres unmarked) [Example 9, 2,5-Dimethyl-1,2-dihydro-phenanthro[1,2-b]furan-10,11-dione] came in with a GOT of 355.0, a GPT of 77.0, an HDL chol of 48.0 and an LDL chol of 11.00. In assay [1], this molecule displayed a T. chol of 135.0, a glucose of 136 and a triglyceride of 72.0. Moreover, the AMPK fold with AMPK was found to be 2.3 fold. Besides, in assay [2] (setting [3]), the change in vivo at 0.4 % in feed was -6%. Moreover, the “Final BW” value in assay [2] turned out to be 48.9 ± 1.7 g.
Turning to `CC1CC2=C(O1)c1ccc3c(c1C(=O)C2=O)CCCC3(C)C` (single isomer, unassigned) [Example 2, 2,6,6-Trimethyl-1,2,6,7,8,9-hexahydro-phenanthro[1,2-b]furan-10,11-dione], in assay [1] (listed as Ex. 2), the GOT stood at 378.8, the GPT was 215.0, the HDL chol worked out at 38.8 and the LDL chol was determined as 21.67. In assay [1] (listed as Ex. 2), the T. chol is on record as 125.0, the glucose is recorded as 125 and the triglyceride is 58.8. The AMPK fold with AMPK turned out to be 2.4 fold. Further, in assay [2] (setting [3]), the “Increase in BW” value is recorded as −15.9%. Further, in assay [2], the “Final BW” value is on record as 44.4 ± 3.4 g.
In assay [1], `Cc1cc2c(c3ccccc13)C(=O)C(=O)C1=C2OC(C)C1(C)C` (centres unmarked) [Example 10, 1,1,2,5-Tetramethyl-1,2-dihydro-phenanthro[1,2-b]furan-10,11-dione] returned a GOT of 283.3, a GPT of 66.7, an HDL chol of 45.0 and an LDL chol of 5.00. Besides, in assay [1], the T. chol came to 115.0, the glucose is on record as 121 and the triglyceride is 88.3. This molecule returned an AMPK fold with AMPK of 2.4 fold. The change in vivo at 0.4 % in feed in assay [2] (setting [3]) was -20.3%. Also, the “Final BW” value in assay [2] is 41.1 ± 1.3 g.
In assay [1], `CC1OC2=C(C(=O)C(=O)c3c2ccc2ccccc32)C1(C)C` (centres unmarked) [Example 8, 1,1,2-Trimethyl-1,2-dihydro-phenanthro[1,2-b]furan-10,11-dione] came in with a GOT of 376.5, a GPT of 241.0, an HDL chol of 48.0 and an LDL chol of 13.75. In addition, in assay [1], the T. chol came to 132.5, the glucose was 118 and the triglyceride came to 79.5. In the assay on AMPK, this molecule returned an AMPK fold of 2.5 fold. In addition, the change in vivo at 0.4 % in feed in assay [2] (setting [3]) was -20.3%. In addition, the “Final BW” value in assay [2] is 41.1 ± 1.3 g.
